Measurements from ChEMBL document CHEMBL4308841, “Synthesis, in vitro antiproliferative activity, and kinase inhibitory effects of pyrazole-containing diarylureas and diarylamides” (Eur J Med Chem, 2018).

Legend:
Assay type in all cases: functional, cell-based
CCRF-CEM = assay: Growth inhibition of human CCRF-CEM cells incubated for 48 hrs by sulforhodamine B assay
HL-60(TB) = assay: Growth inhibition of human HL-60(TB) cells incubated for 48 hrs by sulforhodamine B assay; settings: HL-60, 48 h
MOLT-4 = assay: Growth inhibition of human MOLT4 cells incubated for 48 hrs by sulforhodamine B assay; settings: MOLT-4, 48 h, read-out: TGI
RPMI-8226 = assay: Growth inhibition of human RPMI8226 cells incubated for 48 hrs by sulforhodamine B assay; settings: RPMI-8226, 48 h
HOP-62 = assay: Growth inhibition of human HOP62 cells incubated for 48 hrs by sulforhodamine B assay; settings: HOP-62, 48 h
HOP-92 = assay: Growth inhibition of human HOP92 cells incubated for 48 hrs by sulforhodamine B assay; settings: HOP-92, 48 h
NCI-H226 = assay: Growth inhibition of human NCI-H226 cells incubated for 48 hrs by sulforhodamine B assay; settings: NCI-H226, 48 h
NCI-H23 = assay: Growth inhibition of human NCI-H23 cells incubated for 48 hrs by sulforhodamine B assay; settings: NCI-H23, 48 h
NCI-H522 = assay: Growth inhibition of human NCI-H522 cells incubated for 48 hrs by sulforhodamine B assay; settings: NCI-H522, 48 h
COLO 205 = assay: Growth inhibition of human COLO205 cells incubated for 48 hrs by sulforhodamine B assay; settings: COLO 205, 48 h
HCT-116 = assay: Growth inhibition of human HCT116 cells incubated for 48 hrs by sulforhodamine B assay; settings: HCT-116, 48 h
HT-29 = assay: Growth inhibition of human HT-29 cells incubated for 48 hrs by sulforhodamine B assay; settings: HT-29, 48 h
KM12 = assay: Growth inhibition of human KM12 cells incubated for 48 hrs by sulforhodamine B assay; settings: KM12, 48 h
SF-295 = assay: Growth inhibition of human SF295 cells incubated for 48 hrs by sulforhodamine B assay; settings: SF-295, 48 h
SF-539 = assay: Growth inhibition of human SF539 cells incubated for 48 hrs by sulforhodamine B assay; settings: SF-539, 48 h
Malme-3M = assay: Growth inhibition of human MALME-3M cells incubated for 48 hrs by sulforhodamine B assay
M14 = assay: Growth inhibition of human M14 cells incubated for 48 hrs by sulforhodamine B assay; settings: M14, 48 h
MDA-MB-435 = assay: Growth inhibition of human MDA-MB-435 cells incubated for 48 hrs by sulforhodamine B assay; settings: MDA-MB-435, 48 h
SK-MEL-2 = assay: Growth inhibition of human SK-MEL-2 cells incubated for 48 hrs by sulforhodamine B assay; settings: SK-MEL-2, 48 h
SK-MEL-5 = assay: Growth inhibition of human SK-MEL-5 cells incubated for 48 hrs by sulforhodamine B assay; settings: SK-MEL-5, 48 h
UACC-257 = assay: Growth inhibition of human UACC257 cells incubated for 48 hrs by sulforhodamine B assay; settings: UACC-257, 48 h
UACC-62 = assay: Growth inhibition of human UACC62 cells incubated for 48 hrs by sulforhodamine B assay; settings: UACC-62, 48 h
IGROV-1 = assay: Growth inhibition of human IGROV1 cells incubated for 48 hrs by sulforhodamine B assay; settings: IGROV-1, 48 h, read-out: TGI
NCI/ADR-RES = assay: Growth inhibition of human NCI/ADR-RES cells incubated for 48 hrs by sulforhodamine B assay; settings: read-out: TGI
ACHN = assay: Growth inhibition of human ACHN cells incubated for 48 hrs by sulforhodamine B assay; settings: read-out: TGI
TK-10 = assay: Growth inhibition of human TK10 cells incubated for 48 hrs by sulforhodamine B assay; settings: TK-10, 48 h
PC-3 = assay: Growth inhibition of human PC3 cells incubated for 48 hrs by sulforhodamine B assay; settings: PC-3, 48 h
MCF7 = assay: Growth inhibition of human MCF7 cells incubated for 48 hrs by sulforhodamine B assay; settings: MCF7, 48 h, read-out: TGI
MDA-MB-231 = assay: Growth inhibition of human MDA-MB-231 cells incubated for 48 hrs by sulforhodamine B assay; settings: MDA-MB-231, 48 h
T47D = assay: Growth inhibition of human T47D cells incubated for 48 hrs by sulforhodamine B assay
MDA-MB-468 = assay: Growth inhibition of human MDA-MB-468 cells incubated for 48 hrs by sulforhodamine B assay; settings: MDA-MB-468, 48 h

CNC(=O)c1cc(Oc2ccc(NC(=O)Nc3ccc(Cl)c(C(F)(F)F)c3)cc2)ccn1 [SORAFENIB]
IC50 (CCRF-CEM): 2 µM | IC50 (HL-60(TB)): 1.58 µM | TGI (HL-60(TB); read-out: TGI): 100 µM | TGI (MOLT-4): 100 µM | IC50 (RPMI-8226): 1.58 µM | IC50 (HOP-62): 2 µM | IC50 (HOP-92): 1.58 µM | TGI (HOP-92; read-out: TGI): 5.01 µM | IC50 (NCI-H226): 2 µM | IC50 (NCI-H23): 2 µM | TGI (NCI-H23; read-out: TGI): 5.01 µM | IC50 (NCI-H522): 2 µM | IC50 (COLO 205): 2 µM | IC50 (HCT-116): 1.58 µM | IC50 (HT-29): 2 µM | IC50 (KM12): 1.58 µM | IC50 (SF-295): 1.58 µM | IC50 (SF-539): 1.58 µM | IC50 (Malme-3M): 2 µM | IC50 (M14): 2 µM | IC50 (MDA-MB-435): 1.58 µM | IC50 (SK-MEL-2): 2 µM | IC50 (SK-MEL-5): 1.58 µM | IC50 (UACC-257): 2 µM | TGI (UACC-257; read-out: TGI): 5.01 µM | IC50 (UACC-62): 1.58 µM | TGI (IGROV-1): 10 µM | TGI (NCI/ADR-RES): 7.94 µM | TGI (ACHN): 10 µM | IC50 (TK-10): 3.98 µM | TGI (TK-10; read-out: TGI): 10 µM | IC50 (PC-3): 2 µM | TGI (MCF7): 7.94 µM | IC50 (MDA-MB-231): 1.26 µM | IC50 (T47D): 1.58 µM | IC50 (MDA-MB-468): 2 µM
